Measurements: PubChem BioAssay AID330 (DTP/NCI, 2004)
“And” between values parts separate entries of the source, which are not always exact repeats. Identical values can stand only once. Inconclusive results and toxic doses are left out.

Tested on: P388 leukemia ip, CD2F1 mice, survival T/C
Experiment: NCI In Vivo Anticancer Drug Screen. Data for tumor model P388 Leukemia (intraperitoneal) in CD2F1 (CDF1) mice
Details: endpoint: median survival time, higher = longer survival
Procedure, shortened: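 Mice carrying the transplanted tumor received test compound or vehicle. Survival was recorded in each group, and the value is the treated-group measurement divided by that of the vehicle-treated control group.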

[1] = dose: 50.0 mg/kg/injection, schedule: Q01DX009 (ip), vehicle: saline with Tween-80
[2] = dose: 100.0 mg/kg/injection, schedule: Q01DX009 (ip), vehicle: saline with Tween-80
[3] = dose: 50.0 mg/kg/injection, schedule: Q01DX005 (ip), vehicle: Klucel (hydroxypropylcellulose) (HPC)
[4] = dose: 100.0 mg/kg/injection, schedule: Q01DX005 (ip), vehicle: Klucel (hydroxypropylcellulose) (HPC)
[5] = dose: 200.0 mg/kg/injection, schedule: Q01DX005 (ip), vehicle: Klucel (hydroxypropylcellulose) (HPC)
[6] = dose: 60.0 mg/kg/injection, schedule: Q01DX005 (ip), vehicle: Klucel (hydroxypropylcellulose) (HPC)
[7] = dose: 120.0 mg/kg/injection, schedule: Q01DX005 (ip), vehicle: Klucel (hydroxypropylcellulose) (HPC)
[8] = dose: 240.0 mg/kg/injection, schedule: Q01DX005 (ip), vehicle: Klucel (hydroxypropylcellulose) (HPC)
[9] = dose: 100.0 mg/kg/injection, schedule: Q04DX003 (ip), vehicle: saline with Tween-80
[10] = dose: 200.0 mg/kg/injection, schedule: Q04DX003 (ip), vehicle: saline with Tween-80
[11] = dose: 25.0 mg/kg/injection, schedule: Q01DX009 (ip), vehicle: saline
[12] = dose: 50.0 mg/kg/injection, schedule: Q01DX009 (ip), vehicle: saline
[13] = dose: 100.0 mg/kg/injection, schedule: Q01DX009 (ip), vehicle: saline
[14] = dose: 200.0 mg/kg/injection, schedule: Q01DX009 (ip), vehicle: saline
[15] = dose: 200.0 mg/kg/injection, schedule: Q01DX009 (ip), vehicle: saline with Tween-80

## CSC(SC)(SC)SC
[1]
  T/C: 94 % of control
[2]
  T/C: 109 % of control

## c1nc2c(o1)CCCC2
dose: 60.0 mg/kg/injection, schedule: Q01DX005 (ip), vehicle: saline with Tween-80
  T/C: 104 % of control
dose: 120.0 mg/kg/injection, schedule: Q01DX005 (ip), vehicle: saline with Tween-80
  T/C: 101 % of control
dose: 240.0 mg/kg/injection, schedule: Q01DX005 (ip), vehicle: saline with Tween-80
  T/C: 95 % of control

## COc1ccc([B-]23OCC[N+]2(CNC(=O)C2=C(O)C4(O)C(=O)C5=C(O)c6c(O)cccc6C(C)(O)C5CC4C(N(C)C)C2=O)CCO3)cc1 (stereo unspecified)
[3]
  T/C: 105 % of control
[4]
  T/C: 105 % of control
[5]
  T/C: 105 % of control

## O=C1Cc2ccccc2C2(CCCCC2)O1
[3]
  T/C: 100 % of control
[4]
  T/C: 98 % of control
[5]
  T/C: 100 % of control

## Cc1cc(O)c(C(c2ccccc2)c2c(O)cc(C)[nH]c2=O)c(=O)[nH]1
dose: 25.0 mg/kg/injection, schedule: Q01DX009 (ip), vehicle: saline with Tween-80
  T/C: 90 % of control
[1]
  T/C: 91 % of control
[2]
  T/C: 86 % of control

## NC(=O)/C(N=Nc1ccccc1I)=N\Nc1ccccc1I
[3]
  T/C: 97 % of control
[4]
  T/C: 98 % of control
[5]
  T/C: 97 % of control

## CSc1nn(CCC#N)c(=O)[nH]c1=O
dose: 25.0 mg/kg/injection, schedule: Q01DX005 (ip), vehicle: water
  T/C: 104 % of control
dose: 50.0 mg/kg/injection, schedule: Q01DX005 (ip), vehicle: water
  T/C: 103 % of control
[6]
  T/C: 105 % of control
dose: 100.0 mg/kg/injection, schedule: Q01DX005 (ip), vehicle: water
  T/C: 110 % of control
[7]
  T/C: 100 % of control
[8]
  T/C: 100 % of control

## CCOC(=O)\C(C#N)=C/C(C)=C/C(C)=C/Nc1ccc([N+](=O)[O-])cc1[N+](=O)[O-]
[3]
  T/C: 111 % of control
[4]
  T/C: 110 % of control
[5]
  T/C: 114 % of control

## CN1C(c2ccccc2)C2CCCC(C1c1ccccc1)[N+](C)(C)C2 (stereo unspecified)
dose: 100.0 mg/kg/injection, schedule: Q04DX003 (ip), vehicle: suspension in saline
  T/C: 104 % of control
dose: 200.0 mg/kg/injection, schedule: Q04DX003 (ip), vehicle: suspension in saline
  T/C: 100 % of control
dose: 400.0 mg/kg/injection, schedule: Q04DX003 (ip), vehicle: suspension in saline
  T/C: 100 % of control

## CCOC(C[Se]c1ccccc1)OCC(F)(F)F (stereo unspecified)
dose: 50.0 mg/kg/injection, schedule: Q04DX003 (ip), vehicle: saline with Tween-80
  T/C: 90 % of control
[9]
  T/C: 102 % of control
[10]
  T/C: 111 % of control

## CNC(=O)c1cc([N+](=O)[O-])cnc1NC
dose: 50.0 mg/kg/injection, schedule: Q01DX009 (ip), vehicle: Klucel (hydroxypropylcellulose) (HPC)
  T/C: 95 % of control
dose: 100.0 mg/kg/injection, schedule: Q01DX009 (ip), vehicle: Klucel (hydroxypropylcellulose) (HPC)
  T/C: 98 % of control
dose: 200.0 mg/kg/injection, schedule: Q01DX009 (ip), vehicle: Klucel (hydroxypropylcellulose) (HPC)
  T/C: 92 % of control

## N#CC1(C#N)C(c2ccccc2)C1(C#N)C#N
dose: 6.25 mg/kg/injection, schedule: Q04DX003 (ip), vehicle: saline sonified
  T/C: 115 % of control
dose: 12.5 mg/kg/injection, schedule: Q04DX003 (ip), vehicle: saline sonified
  T/C: 110 % of control
dose: 16.5 mg/kg/injection, schedule: Q04DX003 (ip), vehicle: saline with Tween-80
  T/C: 108 % of control
dose: 25.0 mg/kg/injection, schedule: Q04DX003 (ip), vehicle: saline with Tween-80
  T/C: 112 % of control

## CCCCCCCCCc1cc(=O)[nH]c(=O)[nH]1
dose: 100.0 mg/kg/injection, schedule: Q01DX001 (ip), vehicle: Klucel (hydroxypropylcellulose) (HPC)
  T/C: 96 % of control
dose: 200.0 mg/kg/injection, schedule: Q01DX001 (ip), vehicle: Klucel (hydroxypropylcellulose) (HPC)
  T/C: 96 % of control
dose: 400.0 mg/kg/injection, schedule: Q01DX001 (ip), vehicle: Klucel (hydroxypropylcellulose) (HPC)
  T/C: 94 % of control

## O=NNc1ccc(-c2ccccc2)cn1
dose: 6.25 mg/kg/injection, schedule: Q01DX009 (ip), vehicle: saline
  T/C: 101 % of control
[11]
  T/C: 181 % of control
[12]
  T/C: 108 % of control

## CC12CCC3C4CCC(=O)C(O)=C4CCC3C1CCC2OC(=O)CCC1CCCC1 (stereo unspecified)
dose: 50.0 mg/kg/injection, schedule: Q04DX003 (sc), vehicle: Klucel (hydroxypropylcellulose) (HPC)
  T/C: 99 % of control
dose: 100.0 mg/kg/injection, schedule: Q04DX003 (sc), vehicle: Klucel (hydroxypropylcellulose) (HPC)
  T/C: 118 % of control
dose: 200.0 mg/kg/injection, schedule: Q04DX003 (sc), vehicle: Klucel (hydroxypropylcellulose) (HPC)
  T/C: 101 % of control

## Cc1ccc(S)c(S)c1
[11]
  T/C: 100 % of control
[12]
  T/C: 108 % of control
[13]
  T/C: 100 % of control and 106 % of control and 113 % of control
[14]
  T/C: 101 % of control
dose: 400.0 mg/kg/injection, schedule: Q01DX009 (ip), vehicle: saline
  T/C: 94 % of control
dose: 600.0 mg/kg/injection, schedule: Q01DX009 (ip), vehicle: saline
  T/C: 91 % of control

## c1csc(C[N+]23CN4CN(CN(C4)C2)C3)c1
dose: 130.0 mg/kg/injection, schedule: Q01DX009 (ip), vehicle: saline
  T/C: 109 % of control
[14]
  T/C: 118 % of control
dose: 300.0 mg/kg/injection, schedule: Q01DX009 (ip), vehicle: saline
  T/C: 123 % of control

## O[C@H]1c2cccn2-c2ccccc2S[C@H]1c1ccccc1
[6]
  T/C: 91 % of control
[7]
  T/C: 94 % of control
[8]
  T/C: 102 % of control

## Cc1cc(NC(=O)c2ccc(C(=O)Nc3ccc(C4=NCCN4)c(C)c3)cc2)ccc1C1=NCCN1
[9]
  T/C: 118 % of control
[10]
  T/C: 104 % of control
dose: 400.0 mg/kg/injection, schedule: Q04DX003 (ip), vehicle: saline with Tween-80
  T/C: 104 % of control

## COc1cc2cc(c1Cl)N(C)C(=O)CC(OC(=O)C(C)N(C)C(=O)C(C)C)C1(C)OC1C(C)C1CC(O)(NC(=O)O1)C(OC)/C=C/C=C(C)C2O (stereo unspecified)
dose: 0.02 mg/kg/injection, schedule: Q01DX009 (ip), vehicle: steriod suspending solution
  T/C: 168 % of control
dose: 0.05 mg/kg/injection, schedule: Q01DX009 (ip), vehicle: steriod suspending solution
  T/C: 150 % of control
dose: 0.1 mg/kg/injection, schedule: Q01DX009 (ip), vehicle: steriod suspending solution
  T/C: 186 % of control
dose: 0.2 mg/kg/injection, schedule: Q01DX009 (ip), vehicle: steriod suspending solution
  T/C: 213 % of control
dose: 32.0 micrograms/kg/injection, schedule: Q01DX009 (ip), vehicle: distilled water + alcohol
  T/C: 159 % of control

## Nc1ccc(OCCNS(=O)(=O)c2cccc(S(=O)(=O)F)c2)c(Cl)c1
dose: 37.5 mg/kg/injection, schedule: Q01DX001 (ip), vehicle: saline with Tween-80
  T/C: 95 % of control
dose: 75.0 mg/kg/injection, schedule: Q01DX001 (ip), vehicle: saline with Tween-80
  T/C: 95 % of control
dose: 150.0 mg/kg/injection, schedule: Q01DX001 (ip), vehicle: saline with Tween-80
  T/C: 90 % of control

## Cc1nc2c(c(-c3ccc(Cl)cc3)n1)Cc1c(ccc3ccccc13)O2
[12]
  T/C: 107 % of control and 95 % of control
[13]
  T/C: 100 % of control
[14]
  T/C: 100 % of control and 94 % of control

## COc1ccc(OC)c(N=Cc2cccs2)c1
[12]
  T/C: 90 % of control
[13]
  T/C: 100 % of control
[14]
  T/C: 92 % of control

## CCOC(=O)C(Cc1cc2c(n1C)CCCC2)(NC(C)=O)C(=O)OCC
dose: 25.0 mg/kg/injection, schedule: Q01DX005 (ip), vehicle: Klucel (hydroxypropylcellulose) (HPC)
  T/C: 98 % of control
[3]
  T/C: 96 % of control
[4]
  T/C: 98 % of control
[5]
  T/C: 100 % of control

## C=CCN1CCN(c2ccncc2S(=O)(=O)N2CCN(C)CC2)CC1
[12]
  T/C: 105 % of control
[13]
  T/C: 99 % of control
[14]
  T/C: 97 % of control

## O=C(NCCc1ccccc1Br)c1ccccc1
[3]
  T/C: 100 % of control
[4]
  T/C: 97 % of control
[5]
  T/C: 93 % of control

## CC(=O)Nc1nc(N)nc(NC(C)=O)c1N=O
[1]
  T/C: 110 % of control
[2]
  T/C: 119 % of control
[15]
  T/C: 117 % of control

## CC(=O)C1(C)CCOC1=O (stereo unspecified)
dose: 50.0 mg/kg/injection, schedule: Q01DX005 (ip), vehicle: saline with Tween-80
  T/C: 100 % of control
dose: 100.0 mg/kg/injection, schedule: Q01DX005 (ip), vehicle: saline with Tween-80
  T/C: 100 % of control
dose: 200.0 mg/kg/injection, schedule: Q01DX005 (ip), vehicle: saline with Tween-80
  T/C: 109 % of control

## CC(C)c1nc(-c2ccccc2)c(-c2ccccc2)[nH]1
[2]
  T/C: 90 % of control
[15]
  T/C: 90 % of control
dose: 400.0 mg/kg/injection, schedule: Q01DX009 (ip), vehicle: saline with Tween-80
  T/C: 95 % of control
